Where two headings read alike, the source gives them in different places. *1 amine or outer side, *2 acyl side, *3 side chain or, on linkers, in order; H or OH if unused. Where a SMILES comes first, the peptide text is derived from it. Bridges are numbered along the chain shown (N, C = ends). [ ]: non-standard residue; d: D form. The star is where a group is joined. hPhe(3-Cl-4-CF3) = N[C@@H](CCc1ccc(C(F)(F)F)c(Cl)c1)C(=O)O; X32 = COCCN([C@@H](Cc1ccc(C(F)(F)F)cc1)C(=O)[*:2])[*:1]; NPrPhe(4-CF3) = CCCN[C@@H](Cc1ccc(C(F)(F)F)cc1)C(=O)O; NMeGly(cPent) = CN[C@H](C(=O)O)C1CCCC1; Hyp = O=C(O)[C@@H]1C[C@@H](O)CN1; NMeD = CN[C@@H](CC(=O)O)C(=O)O; NMeL = CN[C@@H](CC(C)C)C(=O)O; Morpholide = C1CN(*)CCO1; Ac5c = NC1(C(=O)O)CCCC1; NEtG = CCNCC(=O)O; Sar = CNCC(=O)O

In assay [1] the target is GDP-bound HRAS wild-type protein (Homo sapiens, UniProt P01112). Nature of the assay: Binding to HRAS by surface plasmon resonance (SPR), Single Cycle Kinetics. The note with it: for HRAS/KRAS (ratio of KD value with respect to HRAS to KD value with respect to KRAS) / HRAS/KRAS (ratio of KD value for HRAS to KD value for KRAS): SPR, GDP-bound HRAS wild-type protein vs GDP-bound KRAS wild-type protein.
Sequence of GDP-bound HRAS wild-type protein (P01112 whole entry): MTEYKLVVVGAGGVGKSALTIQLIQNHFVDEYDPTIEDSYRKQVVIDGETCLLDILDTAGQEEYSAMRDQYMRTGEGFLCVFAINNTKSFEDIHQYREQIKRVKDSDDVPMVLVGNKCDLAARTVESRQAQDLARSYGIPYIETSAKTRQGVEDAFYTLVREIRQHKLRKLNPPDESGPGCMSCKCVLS

Assay [2] concerns the target GDP-bound KRAS wild-type protein (Homo sapiens, UniProt P01116). Nature of the assay: Binding to KRAS by surface plasmon resonance (SPR), Single Cycle Kinetics. The conditions noted are these: GDP-bound KRAS wild-type protein, read-out: KRAS KD. A general note: Surface plasmon resonance follows binding to a sensor surface in real time, without labels.
Assay [3] has as its target GDP-bound NRAS wild-type protein (Homo sapiens, UniProt P01111). Nature of the assay: Binding to NRAS by surface plasmon resonance (SPR), Single Cycle Kinetics. The conditions noted are these: for NRAS/KRAS (ratio of KD value with respect to NRAS to KD value with respect to KRAS) / NRAS/KRAS (ratio of KD value for NRAS to KD value for KRAS): SPR, GDP-bound NRAS wild-type protein vs GDP-bound KRAS wild-type protein.

The mark [4] stands for this setting: SPR Single Cycle Kinetics, 1:1 binding model.

Sequence of GDP-bound KRAS wild-type protein (P01116 whole entry): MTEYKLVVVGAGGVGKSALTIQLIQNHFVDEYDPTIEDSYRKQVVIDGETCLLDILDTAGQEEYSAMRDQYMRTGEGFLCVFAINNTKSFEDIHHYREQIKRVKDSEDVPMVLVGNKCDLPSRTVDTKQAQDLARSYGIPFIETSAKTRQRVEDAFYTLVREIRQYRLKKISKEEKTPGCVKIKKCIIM
Sequence of GDP-bound NRAS wild-type protein (P01111 whole entry): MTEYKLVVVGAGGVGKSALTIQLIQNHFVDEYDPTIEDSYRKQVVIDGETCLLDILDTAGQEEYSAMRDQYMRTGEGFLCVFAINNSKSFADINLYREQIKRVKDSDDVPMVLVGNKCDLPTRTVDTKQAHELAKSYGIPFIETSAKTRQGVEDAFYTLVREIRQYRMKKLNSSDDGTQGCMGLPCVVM

As usually defined, the Kd is the concentration at which binding is half-saturated. Take `CC[C@H](C)[C@@H]1NC(=O)[C@H](CC(C)C)N(C)C(=O)C[C@@H](C(=O)N2CCOCC2)N(C)C(=O)[C@H](C2CCCC2)N(C)C(=O)C2(CCC2)NC(=O)[C@@H]2C[C@@H](C(F)(F)F)CN2C(=O)[C@H](CCc2cc(F)c(C(F)(F)F)c(F)c2)NC(=O)CN(C)C(=O)[C@H](Cc2ccc(C(F)(F)F)cc2)N2CCCC[C@@H](C2=O)N(C)C(=O)CN(C)C1=O` [PP0809]: the “HRAS/KRAS (ratio of KD value with respect to HRAS to KD value with respect to KRAS)” value in assay [1] is “B (a compound having 3 or more and less than 10 is denoted as B)”. In addition, the Kd in assay [2] (setting [4]) was 0.027 nM. Besides, in assay [3], the “NRAS/KRAS (ratio of KD value with respect to NRAS to KD value with respect to KRAS)” value was “B (a compound having 3 or more and less than 10 is denoted as B)”.
In the case of `CC[C@H](C)[C@@H]1NC(=O)[C@H](CC(C)C)N(C)C(=O)C[C@@H](C(=O)N2CCOCC2)N(C)C(=O)[C@H](C2CCCC2)N(C)C(=O)C2(CCC2)NC(=O)[C@@H]2[C@@H](OCC3CC3)CCN2C(=O)[C@H](CCc2cc(F)c(C(F)(F)F)c(F)c2)NC(=O)CN(C)C(=O)[C@H](Cc2ccc(C(F)(F)F)cc2)N2CCCC[C@@H](C2=O)N(C)C(=O)CN(C)C1=O` [PP1072], in assay [1], the “HRAS/KRAS (ratio of KD value for HRAS to KD value for KRAS)” value was “B (a compound having 3 or more and less than 10 is denoted as B)”. In addition, the Kd in assay [2] (SPR, Single Cycle Kinetics) came out at 0.063 nM. In addition, in assay [3], the “NRAS/KRAS (ratio of KD value for NRAS to KD value for KRAS)” value was “B (a compound having 3 or more and less than 10 is denoted as B)”.
With `CCO[C@@H]1C[C@H]2C(=O)NC3(CC(C)(C)C3)C(=O)N(C)[C@@H](C(CC)CC)C(=O)N(C)[C@H](C(=O)N3CCCC3)CC(=O)N(C)[C@@H](COC)C(=O)N[C@@H]([C@@H](C)CC)C(=O)N(C)CC(=O)N(C)[C@H]3C/C=C\CCN(C3=O)[C@@H](Cc3ccc(C)cc3)C(=O)N(C)CC(=O)N[C@@H](CCc3ccc(C(F)(F)F)c(OC)c3)C(=O)N2C1` [PP2167], the “HRAS/KRAS (ratio of KD value for HRAS to KD value for KRAS)” value in assay [1] is “A (a compound having 10 or more and less than 20 is denoted as A)”. Besides, the Kd in assay [2] (SPR, Single Cycle Kinetics) came out at 0.71 nM. Besides, in assay [3], the “NRAS/KRAS (ratio of KD value for NRAS to KD value for KRAS)” value is “AA (a compound having 20 or more is denoted as AA)”.
With `CCCN1C(=O)CN(C)C(=O)CN(CC)C(=O)[C@H]([C@@H](C)CC)NC(=O)[C@H](CC(C)C)N(C)C(=O)C[C@@H](C(=O)N(C)C)N(C)C(=O)[C@H](C2CCCC2)N(C)C(=O)C2(CCCC2)NC(=O)[C@@H]2C[C@@H](OCC)CN2C(=O)[C@H](CCc2ccc(C(F)(F)F)c(Cl)c2)NC(=O)CN(C)C(=O)[C@@H]1Cc1ccc(C(F)(F)F)cc1` [PP0427] ([NMeL]I[NEtG][Sar][NPrPhe(4-CF3)][Sar][hPhe(3-Cl-4-CF3)][Hyp](Et)[Ac5c][NMeGly(cPent)][NMeD]-NMe2; lactam N-11), the “HRAS/KRAS (ratio of KD value with respect to HRAS to KD value with respect to KRAS)” value in assay [1] was “C (A compound having a KD ratio of 0.1 or more and less than 3 is denoted as C)”. Besides, the Kd in assay [2] (setting [4]) amounted to 0.11 nM. Moreover, in assay [3], the “NRAS/KRAS (ratio of KD value with respect to NRAS to KD value with respect to KRAS)” value was “B (a compound having 3 or more and less than 10 is denoted as B)”.
Regarding `CC[C@H](C)[C@@H]1NC(=O)[C@H](CC(C)C)N(C)C(=O)C[C@@H](C(=O)N2CCOCC2)N(C)C(=O)[C@H](C2CCCC2)N(C)C(=O)C2(CCCC2)NC(=O)[C@@H]2CCCN2C(=O)[C@H](CCc2ccc(C(F)(F)F)c(Cl)c2)NC(=O)CN(C)C(=O)[C@H](Cc2ccc(C(F)(F)F)cc2)N(CCOC)C(=O)CN(C)C(=O)CN(C)C1=O` [PP0132] ([NMeL]I[Sar][Sar][X32][Sar][hPhe(3-Cl-4-CF3)]P[Ac5c][NMeGly(cPent)][NMeD]-Morpholide; lactam N-11), the “HRAS/KRAS (ratio of KD value for HRAS to KD value for KRAS)” value in assay [1] is “C (A compound having a KD ratio of 0.1 or more and less than 3 is denoted as C)”. Moreover, the Kd in assay [2] (setting [4]) is 0.2 nM. Further, the “NRAS/KRAS (ratio of KD value for NRAS to KD value for KRAS)” value in assay [3] is “C (A compound having a KD ratio of 0.1 or more and less than 3 is denoted as C)”.
Consider `CCO[C@@H]1C[C@H]2C(=O)NC3(CC(C)(C)C3)C(=O)N(C)[C@@H](CC3CCC3)C(=O)N(C)[C@H](C(=O)N(C)C)CC(=O)N(C)[C@@H](COC)C(=O)N[C@@H]([C@@H](C)CC)C(=O)N(C3CC3)CC(=O)N(C)[C@H]3C/C=C\CCN(C3=O)[C@@H](Cc3ccc(C(F)(F)F)cc3)C(=O)N(C)CC(=O)N[C@@H](CCc3ccc(Cl)c(Cl)c3)C(=O)N2C1` [PP2821], for which the “HRAS/KRAS (ratio of KD value with respect to GDP-bound HRAS wild-type protein to KD value with respect to KRAS)” value in assay [1] (SPR KD ratio HRAS/KRAS, class symbols) was “A (a compound having 10 or more and less than 20 is denoted as A)”. For the same compound, in assay [2] (setting [4]), the Kd amounted to 1.8 nM. Moreover, the “NRAS/KRAS (ratio of KD value with respect to GDP-bound NRAS wild-type protein to KD value with respect to KRAS)” value in assay [3] (SPR KD ratio NRAS/KRAS, class symbols) is “A (a compound having 10 or more and less than 20 is denoted as A)”.

The values are drawn from patent publication US20240158446A1, “CYCLIC COMPOUND HAVING SELECTIVE INHIBITORY ACTION ON KRAS OVER HRAS AND NRAS” (CHUGAI SEIYAKU KABUSHIKI KAISHA, priority 2021, published 2024).
